Activity calls are given as the source filed them. How the calls were made is not given here. A value given as a limit tells only on which side of the number the result lay.

Assay [1] deals with Mycobacterium tuberculosis H37Rv growth inhibition, 7H9 medium. Description: M. tuberculosis growth inhibition, dose response, H37Rv, 7H9 media, purified and synthesized compounds, set 6 (AID 504897). The conditions noted are these: for IC50: measured here: IC50 of Mtb growth inhibition.
Assay in assay [2]: as above
The conditions noted are these: Mycobacterium tuberculosis H37Rv growth inhibition, 7H9 medium; at 100 µM (top of the series).

In the case of `Cc1nc(SCC(=O)NC2CCCCC2)[nH]c(=O)c1C`, in assay [1], the IC90 – broadly, the point of the concentration-response curve where the effect stands at 90% – was 1320 nM and the IC50 (in general, the midpoint of a concentration-inhibition curve) is less than 6 nM. On the same counts, the results for `CCCCNC(=O)CSc1nc2ccccc2c(=O)[nH]1` are 1210 nM and 55 nM. On the same counts, the results for `Nc1c(C(=O)NC2CCCCC2)nsc1C(=O)OCC(=O)NC1CCCCC1` are 7450 nM and 2130 nM.

As to `NNC(=O)c1ccncc1`, in assay [1], the IC90 is 294 nM and the IC50 came to 175 nM.

Take `COC(=O)C(Nc1nc(SCC(=O)NC2CCCCC2)nc2ccccc12)c1ccccc1` (centres undefined): the inhibition (usually the change of the read-out against control, counted positive when it falls) in assay [2] was 9.91% (inactive).

Consider `Cc1cc(=O)[nH]c(=S)[nH]1`, for which the inhibition in assay [2] was -3.5% (inactive). Still for that read-out and setting: the figure for `Cc1nc(SCc2ccccc2Cl)[nH]c(=O)c1C` is -10.5% (inactive).

`Cc1nc(SCC(=O)NC2CCCC2)[nH]c(=O)c1C`: in assay [1], the IC90 was 8890 nM and the IC50 was 5120 nM.

Consider `COc1cccc(NC(=O)CSc2nc3c(c(=O)[nH]2)CCC3)c1`, for which, in assay [2], the inhibition was -0.07% (inactive). As to `O=C(CSc1nc2c(c(=O)[nH]1)CCC2)NC1CCCCC1`, in assay [1], the IC90 was less than 69 nM and the IC50 was less than 34 nM. As for `Cc1ccc(NC(=O)CSc2nc3ccccc3c(=O)[nH]2)cc1Cl`, the inhibition in assay [2] was -4.35% (inactive). In the case of `c1ccc(/N=C2\N=C(Nc3ccccn3)c3ccccc32)nc1`, in assay [1], the concentration for an effect of 90% (IC90) was 1760 nM and the IC50 was determined as 1180 nM. On the same counts, the results for `Cc1ccc(NC(=O)COC(=O)CCc2c[nH]c3ccccc23)cc1[N+](=O)[O-]` are 4370 nM and 1340 nM. As for `NC(=O)c1cnccn1`, the IC50 in assay [1] was more than 100000 nM. As to `Cn1c(SCC(=O)NC2CCCCC2)nc2ccccc2c1=O`, in assay [2], the inhibition was -2.65% (inactive). For the compound `CCOc1ccc(-c2cc(C)[n+](CCc3ccc(OC)c(OC)c3)c(-c3ccc(OCC)cc3)c2)cc1`, in assay [1], the 90% effect concentration (IC90) was 954 nM and the IC50 amounted to 568 nM.

As for `O=C(CSc1ncccn1)NC1CCCCC1`, the inhibition in assay [2] is -0.52% (inactive). On to `Cc1cnc(SCC(=O)NC2CCCCC2)[nH]c1=O`, for which, in assay [2], the inhibition was 0.5% (inactive).

Take `NC[C@H]1O[C@H](O[C@H]2[C@H](O)[C@@H](O[C@H]3O[C@H](CO)[C@@H](O)[C@H](N)[C@H]3O)[C@H](N)C[C@@H]2N)[C@H](O)[C@@H](O)[C@@H]1O`: in assay [1], the IC90 is 2120 nM and the IC50 was 1390 nM. Regarding `CCC(Sc1nc2c(c(=O)[nH]1)CCC2)C(=O)Nc1cccc(OC)c1` (centres undefined), in assay [2], the inhibition is 1.68% (inactive). On to `O=C(CSc1nccc(=O)[nH]1)NC1CCCCC1`, for which the inhibition in assay [2] was 0.9% (inactive). On the same count and under the same terms, the value for `Cc1[nH]c(=S)[nH]c(=O)c1C` was -0.2% (inactive). As for `Cc1c[nH]c(=S)[nH]c1=O`, in assay [2], the inhibition is -0.98% (inactive).

Consider `COC(=O)c1ccc(CNc2c(N3CCCC3)c(=O)c2=O)cc1`, for which, in assay [1], the IC50 is more than 100000 nM.

`CN(C(=O)CSc1nc2ccccc2c(=O)[nH]1)C1CCCCC1`: the inhibition in assay [2] was -1.28% (inactive). `CC[N+](C)(CC)CCCCOc1ccc2c(c1)C(=O)c1cc(OCCCC[N+](C)(CC)CC)ccc1-2`: in assay [1], the IC90 is 2650 nM and the IC50 is 1770 nM. Taken in the same sequence, the figures for `COC(=O)C(C)Oc1ccc(Cc2ncc(C(F)(F)F)cc2Cl)cc1` (centres undefined) were 6750 nM and 3500 nM.

For `CC(C)CNC(=O)CSc1nc2ccccc2c(=O)[nH]1`, in assay [1], the IC90 was 432 nM and the IC50 is 173 nM. For `CCSc1nc2ccccc2c(=O)[nH]1`, the inhibition in assay [2] is -6.01% (inactive). For the compound `COc1cccc(NC(=O)CSc2nc3ccccc3c(=O)[nH]2)c1`, the inhibition in assay [2] was -3.46% (inactive). Take `Nc1cc(=O)[nH]c(SCC(=O)NC2CCCCC2)n1`: the inhibition in assay [2] was -4.53% (inactive). Consider `O=C(CSc1nc2ccccc2c(=O)[nH]1)N1CCOCC1`, for which, in assay [2], the inhibition is 6.74% (inactive). For `CC1CCN(C(=O)C2CCN(c3nnc(-n4cccc4)s3)CC2)CC1`, in assay [1], the IC90 is 3900 nM and the IC50 is 2750 nM. As to `CC1CCN(C(=O)CSc2nc3ccccc3c(=O)[nH]2)CC1`, the inhibition in assay [2] was 3.89% (inactive). As for `Cc1cc(C)n2nc(N)c(N=Nc3ccccc3)c2n1`, in assay [1], the IC90 is 6010 nM and the IC50 is 4940 nM. Consider `CC(C)N=c1cc2n(-c3ccc(Cl)cc3)c3ccccc3nc-2cc1Nc1ccc(Cl)cc1`, for which, in assay [1], the IC90 is 396 nM and the IC50 worked out at 67 nM. As for `CC(C)NC(=O)CSc1nc2ccccc2c(=O)[nH]1`, in assay [1], the IC90 was 14200 nM and the IC50 came out at 5840 nM. As for `CC(C)CCNC(=O)CSc1nc2ccccc2c(=O)[nH]1`, in assay [1], the IC90 was less than 136 nM and the IC50 was less than 81 nM. Taken in the same sequence, the figures for `O=C(CSc1nc2c(c(=O)[nH]1)CCCC2)NC1CCCCC1` were 81 nM and less than 37 nM. On the same counts, the results for `Cc1cc(Br)ccc1NC(=O)c1cnc(N2CCN(c3ccccn3)CC2)c2ccccc12` are 2790 nM and 887 nM.

Consider `COc1ccc(NC(=O)CSc2nc3ccccc3c(=O)[nH]2)cc1`, for which the inhibition in assay [2] is 1.71% (inactive). With `CCOC(=O)CSc1nc(C)c(C)c(=O)[nH]1`, the inhibition in assay [2] is 3.07% (inactive). Turning to `O=c1[nH]c(SCc2ccccc2Cl)nc2c1CCCC2`, the inhibition in assay [2] is 1.13% (inactive). The same measure, in the same setting: the figure for `Cc1cc(=O)[nH]c(SCC(=O)NC2CCCCC2)n1` is 0.97% (inactive). On the same count and under the same terms, the value for `CCC(Sc1nc2ccccc2c(=O)[nH]1)C(=O)Nc1cccc(OC)c1` (centres undefined) was 4.58% (inactive); that for `O=c1[nH]c(=S)[nH]c2ccccc12` was -4.69% (inactive).

In the case of `CN1CCC(NC(=O)CSc2nc3ccccc3c(=O)[nH]2)CC1`, the inhibition in assay [2] is -4.24% (inactive).

On to `NC(=O)CSc1nc2ccccc2c(=O)[nH]1`, for which, in assay [2], the inhibition is 3.52% (inactive). The same measure, in the same setting: the value for `CCSc1nc(C)c(C)c(=O)[nH]1` was 0.94% (inactive). With `Cc1[nH]c2ccccc2c1C(=O)COC(=O)c1ccc([N+](=O)[O-])s1`, the IC50 in assay [1] is more than 67400 nM. As for `Cc1ccc(C(=O)N/N=C(/CC(=O)c2cccs2)C(F)(F)F)cc1`, in assay [1], the IC90 is 3100 nM and the IC50 was 1930 nM.

As for `O=C(CSc1nc2ccccc2c(=O)[nH]1)NC1CCCC1`, in assay [1], the IC90 is 535 nM and the IC50 was found to be 89 nM. On the same counts, the results for `CN[C@@H]1[C@H](O[C@H]2[C@H](O[C@H]3[C@H](O)[C@@H](O)[C@H](N=C(N)N)[C@@H](O)[C@@H]3N=C(N)N)O[C@@H](C)[C@]2(O)C=O)O[C@@H](CO)[C@H](O)[C@H]1O` are 176 nM and 101 nM. Taken in the same sequence, the figures for `CC(C)CCNC(=O)CSc1nc2c(c(=O)[nH]1)CCC2` were 947 nM and 722 nM. On the same counts, the results for `COc1c(N2CCNC(C)C2)c(F)cc2c(=O)c(C(=O)O)cn(C3CC3)c12` (centres undefined) are 162 nM and 113 nM.

Turning to `CC(Sc1nc2ccccc2c(=O)[nH]1)C(=O)NC1CCCCC1` (centres undefined), the inhibition in assay [2] was -1.17% (inactive). As to `Cc1cccc(-c2oc3ccc(-c4ccc5c(c4)OCO5)cc3c2C#Cc2cncn2C)c1`, in assay [1], the IC90 is 2980 nM and the IC50 was 2410 nM. `CCC(Sc1nc2ccccc2c(=O)[nH]1)C(=O)NC1CCCCC1` (centres undefined): the inhibition in assay [2] is 1.35% (inactive). On the same count and under the same terms, the value for `CN(C)C(=O)CSc1nc2ccccc2c(=O)[nH]1` was 0.96% (inactive).

For `Cc1cccc(/C=C/C(=O)c2ccc([N+](=O)[O-])o2)c1`, in assay [1], the IC90 is 938 nM and the IC50 was determined as 495 nM. Regarding `O=C(CSc1ccccn1)NC1CCCCC1`, the IC50 in assay [1] is more than 100000 nM. In turn, `CCCc1cc(C(N)=S)ccn1` displayed an IC50 in assay [1] of 7240 nM. Regarding `O=C(CSc1nc2ccccc2c(=O)[nH]1)NCc1ccc(Cl)cc1`, in assay [1], the IC90 was 973 nM and the IC50 amounted to 554 nM. Taken in the same sequence, the figures for `Cc1nc(SCC(=O)NCCC(C)C)[nH]c(=O)c1C` were 8750 nM and 4900 nM.

For `CNC(=O)CSc1nc2ccccc2c(=O)[nH]1`, in assay [1], the IC90 was 68100 nM and the IC50 amounted to 43900 nM.

Consider `CCOC1OC(=O)C(Cl)=C1Nc1ccccc1C` (centres undefined), for which, in assay [1], the IC90 was 5920 nM and the IC50 was found to be 3220 nM. Consider `Cc1nc(SCC(N)=O)[nH]c(=O)c1C`, for which the inhibition in assay [2] was -2.86% (inactive). The same measure, in the same setting: the value for `Cc1nc(SCC(=O)N(C)c2ccccc2)[nH]c(=O)c1C` was -3.37% (inactive).

The values are drawn from PubChem BioAssay AID504897 (Southern Research Specialized Biocontainment Screening …, 2011).
